Experimental data published in patent US6124242A, “Herbicidal compositions and processes based on ferrodoxin:NADP reductase inhibitors” (BASF Aktiengesellschaft, priority 1998, dated 2000).
One block for each molecule: values may come before it.

Legend:
[1] = system: duckweed Lemnna paucicostata; assay: Growth of duckweed (increase in leaf area); assay type: in vivo; conditions: leaf area after 8-10 days, read-out: Growth inhibition (% of the control); for inhibition at 100 µM: use concentration 10^-4 M; for inhibition at 10 µM: use concentration 10^-5 M; for inhibition at 1 µM: use concentration 10^-6 M
Method: The effect of the herbicidal compounds according to the invention on the growth of duckweed can be seen from the following test results: p The duckweed Lemnna paucicostata was grown under sterile conditions in 250 ml glass vessels containing 100 ml of inorganic nutrient solution supplemented with 1% sucrose, as described by Grossmann et al., Pesticide Science 35 (1992), 283-289. At the beginning of the test, 150 μl of a solution of active ingredient in acetone (stock solution: 100-fold concentrated) were pipetted into Petri dishes (diameter 6 cm, height 1.5 cm; Greiner, Frickenhausen) containing 15 ml of nutrient solution (without added sucrose). Only the solvent component of the active ingredient solution was added to the nutrient solution for the control tests. Then, 4 Lemna plants were introduced into each dish, the dishes were covered with lids and incubated in a controlled-environment cabinet at 25° C. under permanent light conditions (Phillips TL white neon tubes, approx. 40 μmol m^-2 s^-1; λ=400-750 nm). After 8-10 days, the increase in leaf area was determined using an imaging apparatus (Imago, Compulog Computer Syst., Boblingen) as growth parameter, and this was used to calculate the % growth inhibition relative to the control.

[2] = target: T1, ferredoxin:NADP reductase (Spinacia oleracea, UniProt P00455); assay: Inhibition of ferredoxin reductase reaction of ferredoxin:NADP reductase; assay type: biochemical, spinach; conditions: 1 mM
T1 construct: from spinach leaves--obtainable from Sigma, Germany; purchased Sigma, Germany; host or cells: spinach leaves
T1 sequence (P00455 56-369): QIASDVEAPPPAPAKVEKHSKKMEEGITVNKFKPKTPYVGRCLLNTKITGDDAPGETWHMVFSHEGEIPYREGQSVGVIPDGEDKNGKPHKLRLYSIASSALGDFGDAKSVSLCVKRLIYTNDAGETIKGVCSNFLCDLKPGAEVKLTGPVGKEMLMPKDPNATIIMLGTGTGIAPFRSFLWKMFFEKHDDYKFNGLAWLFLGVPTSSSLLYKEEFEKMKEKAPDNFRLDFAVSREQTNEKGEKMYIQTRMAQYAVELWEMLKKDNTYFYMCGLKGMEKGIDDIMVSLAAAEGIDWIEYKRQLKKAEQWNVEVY
Method: (§1) Ferredoxin:NADP reductase not only catalyzes the physiologically relevant, reversible reaction of NADP with ferrecoxin (ferredoxin reductase activity), but also the NADPH-dependent reduction of potassium hexacyanoferrate(III) (diaphorase activity). Methods for measuring these reactions are described in the literature (Meth. Enzymol., Volumes 23 and 69).
The ferredoxin reductase activity can be determined by incubating, for example, chloroplast extracts or isolated ferredoxin:NADP reductase (Sigma) in 100 mM Tris/HCl buffer, pH 7.8+0.2 mM NADPH+0.65 mg/ml cytochrome C+0.1 mg/ml ferredoxin at 25° C. and measuring the change in the absorption at 550 nm, or the difference in absorption change at 550 nm and 540 nm. An incubation mixture without ferredoxin can be used as blank value.
(§2) The action of a test substance can be tested by dissolving the substance in a suitable solvent such as, for example, dimethyl sulfoxide and pipetting an aliquot of the solution to the above-described incubation mixture. A corresponding aliquot of the pure solvent may be used as control. The action of the test substance can be determined by comparing the absorption changes of the respective incubation batches.

[3] = target: T1, ferredoxin:NADP reductase; assay: Inhibition of diaphorase reaction of ferredoxin:NADP reductase; assay type: biochemical, spinach
Method: as §1
The diaphorase activity can be determined by incubating, for example, chloroplasts or isolated ferredoxin:NADP reductase (Sigma) in 100 mM Tris/HCl buffer, pH 8.2+0.5 mM potassium hexacyanoferrate(III)+0.5 mM NADPH or an NADPH-regenerating system such as, for example, 0.5 mM NADP+2.5 mM glucose-6-phosphate+1 unit/ml glucose-6-phosphate dehydrogenase at 25° C. and monitoring the decrease in absorption at 420 nm. An incubation mixture without ferredoxin:NADP reductase may be used as blank value.
as §2

SMILES: CCCCCCCCCCCCCCCCNS(=O)(=O)c1ccc(S(=O)(=O)NN=c2sc3ccccc3n2C)cc1 [A.51]
inhibition at 100 µM [1]: 29%

SMILES: CCCCCCCCCCCCCCCCNS(=O)(=O)c1ccc(S(=O)(=O)NN=c2sc3ccc(S(=O)(=O)C(F)F)cc3n2C)cc1 [A.55]
inhibition at 100 µM [1]: 28%

inhibition at 1000 µM [2]: 90%
E (550 -540) (ferredoxin reductase reaction) ([2]; mean +/- standard deviation of 6 experiments, control (DMSO) 0.692, blank without ferredoxin 0.027): 0.093 +/- 0.026
inhibition at 50 µM [3]: 102%
AU/min *10^-3 (diaphorase reaction, decrease in absorption at 420 nm) ([3]; 50 μM, mean +/- standard deviation of 6 experiments, control (DMSO) 31.3, blank without enzyme 9.4): 9.0 +/- 1.4 AU/min *10^-3
SMILES: CCCCCCCCCCCCCCCCS(=O)(=O)c1ccc(S(=O)(=O)O)cc1C(=O)NN=c1sc2ccc(S(=O)(=O)O)cc2n1C [B.3]
inhibition at 100 µM [1]: 96%
inhibition at 10 µM [1]: 66%
inhibition at 1 µM [1]: 54%

SMILES: CCCCCCCCCCCCCCCCS(=O)(=O)c1ccc(S(=O)(=O)NN=c2sc3ccc(S(=O)(=O)O)cc3n2C)cc1C(=O)O [A.49]
inhibition at 100 µM [1]: 77%
inhibition at 10 µM [1]: 49%
inhibition at 1 µM [1]: 19%

SMILES: CCCCCCCCCCCCCCCCS(=O)(=O)c1ccc(S(=O)(=O)NN=c2sc3cc(S(=O)(=O)O)ccc3n2C)cc1NC(C)=O [A.46]
inhibition at 100 µM [1]: 56%
inhibition at 10 µM [1]: 33%
inhibition at 1 µM [1]: 13%

SMILES: CCCCCCCCCCCCCCCCS(=O)(=O)Nc1cccc(S(=O)(=O)NN=c2sc3ccc(S(=O)(=O)C(F)F)cc3n2C)c1 [A.47]
inhibition at 100 µM [1]: 18%

SMILES: CCCCCCCCCCCCCCCCOc1ccc(C(=O)O)cc1S(=O)(=O)NN=c1sc2ccc(S(=O)(=O)O)cc2n1C [A.28]
inhibition at 100 µM [1]: 60%
inhibition at 10 µM [1]: 42%
inhibition at 1 µM [1]: 26%

SMILES: CCCCCCCCCCCCCCCCNS(=O)(=O)c1ccc(S(=O)(=O)NN=c2sc3ccc(S(=O)(=O)O)cc3n2C)cc1 [A.52]
inhibition at 100 µM [1]: 89%
inhibition at 10 µM [1]: 12%

SMILES: CCCCCCCCCCCCCCCCS(=O)(=O)N(C)c1cccc(S(=O)(=O)NN=c2sc3ccc(S(=O)(=O)O)cc3n2C)c1 [A.48]
inhibition at 100 µM [1]: 42%
inhibition at 10 µM [1]: 34%
inhibition at 1 µM [1]: 28%
